Legend:
[1] = test system: A375.S2 human melanoma tumor; assay: A375.S2 human melanoma xenograft in nude mice, CNTO 95 from day 3; type: in vivo, mouse; conditions: 10 mg/kg i.p. three times per week
Experimental: FIG. 4 is a graph showing the change volume over time of a human melanoma tumor in nude mice and the effect of administering CNTO 95. Mice were inoculated subcutaneously with A375.S2 cells (3×10^6), and dosing with CNTO 95 or control was initiated three days later. Mice were treated with CNTO 95 or vehicle three times per week at a dose of 10 mg/kg i.p. Each data point is the mean tumor volume from 10 tumor-bearing animals (±SEM).
At day 26, CNTO 95 inhibited tumor growth by approximately 80% compared to tumors from control-treated animals.

[2] = test system: A375.S2 human melanoma tumor; assay: A375.S2 human melanoma xenograft in nude rats, weekly CNTO 95; type: in vivo, rat; conditions: 10 mg/kg i.v. weekly, day 46, p=0.0007
Experimental: FIG. 5 is a graph showing the change volume over time of a human melanoma tumor in nude rats and the effect of administering CNTO 95. Rats were inoculated subcutaneously with A375.S2 cells (3×106), and therapy with CNTO 95 or control was initiated three days later. Rats were treated with CNTO 95 or vehicle once per week at a dose of 10 mg/kg i.v. Each data point is the mean tumor volume from 9 tumor-bearing animals (±SEM).
For rat studies, female nude rats, aged 6-7 weeks, were purchased from Harlan. Twenty rats were inoculated s.c. with A375.S2 cells (3×10^6) in the flank region (day 1). On day 4, rats were randomly assigned to 2 groups. One group was injected i.v. with CNTO 95 (10 mg/kg in PBS), while the other group received an isotype-matched control IgG (10 mg/kg). Dosing was continued weekly thereafter until day 46 (total of 6 doses). Tumors were measured by calipers twice a week and tumor volumes calculated by the formula (length×width2)/2. Body weights were also recorded weekly.
In the rat, CNTO 95 is capable of blocking both rat angiogenic integrins and human tumor cell-expressed integrins. Weekly treatment of tumor-bearing nude rats with CNTO 95 at 10 mg/kg reduced tumor growth compared to the isotype-matched human IgG control MAb (FIG. 5).

[3] = test system: tumor and endothelial cells; assay: In vitro functional assays on tumor and endothelial cells (summary); type: cell-based
Source text: In addition, CNTO 95 inhibited angiogenesis and tumor growth in vivo.

[4] = test system: angiogenesis; assay: Rat Matrigel angiogenesis model; type: in vivo; conditions: stimulated by bFGF and M21 melanoma cells
[5] = test system: angiogenesis; assay: Primate angiogenesis model; type: in vivo, cynomulgus monkeys; conditions: stimulated by bFGF
[6] = test system: A375.S2 human melanoma cells; assay: Advanced s.c. A375.S2 melanoma xenograft, first experiment (FIG. 6); type: in vivo, athymic nude rats; conditions: 10 mg/kg i.v., tumors 250-300 mm^3 at start
Experimental: (§1) The efficacy of CNTO 364 compared to CNTO95 against advanced s.c. A375.S2 human melanoma cells was investigated. CNTO 95-DM1 was prepared by ImmunoGen, Inc. Lot #1716-74B, stock concentration: 2.59 mg/ml. 5 mg/kg of CNTO 95-DM1 is equivalent to 74 μg/kg of DM1. CNTO 95 was from Centocor, Lot #5380-027, stock concentration=20 mg/ml. Human IgG-DM1: ChromPure human IgG was from Jackson ImmunoResearch Laboratories. Human IgG-DM1 was prepared by ImmunoGen, Lot #1762-50, stock concentration 2.8 mg/ml. 5 mg/kg of this conjugate is equivalent to 76 μg/kg of DM1. Maytansine: ImmunoGen, Lot #1710-121, stock concentration=16.38 μg/ml in PBS, pH 6.5. The stock solution of Maytansine was diluted with PBS to 15 and 7.5 μg/ml. PBS: ImmunoGen, pH 6.5. A375.S2 human melanoma cells were purchased from ATCC and subpassaged and stored in frozen aliquots at Centocor Cell Biology Services.
Nine-week-old athymic nude rats were subcutaneously inoculated with A375.S2 human melanoma cells. On day 14, when average tumor volumes reached to 250-300 mm^3, animals were randomized to groups of 9/10 and treatment initiated. […] The arrows indicate intravenous drug administration.

[7] = test system: A375.S2 human melanoma xenografts; assay: Advanced s.c. A375.S2 melanoma xenograft in athymic rats, second experiment (FIG. 7); type: in vivo, rat; conditions: i.v., days 14, 16, 18, 23, 31
Experimental: FIG. 7 is a graph showing the growth of human A375.S2 melanoma cells in athymic nude rats. On day 14, when the average tumor volumes reached 250 mm^3, the animals were randomly grouped and the first dose was administered. All animals were sacrificed on day 35. Tumor volumes were expressed as mean+/−SEM (n=9 or 10). The arrows indicate the days of intravenous drug administration.
as §1
In a second experiment in rats, the average tumor volumes reached to 250 mm^3 on day 14. […]

[8] = biological target: αvβ5 (Homo sapiens, UniProt P06756, V783I); assay: 125-I saturation binding on αvβ5 coated plates
αvβ5, sequence (P06756 31-889 V783I limits assumed): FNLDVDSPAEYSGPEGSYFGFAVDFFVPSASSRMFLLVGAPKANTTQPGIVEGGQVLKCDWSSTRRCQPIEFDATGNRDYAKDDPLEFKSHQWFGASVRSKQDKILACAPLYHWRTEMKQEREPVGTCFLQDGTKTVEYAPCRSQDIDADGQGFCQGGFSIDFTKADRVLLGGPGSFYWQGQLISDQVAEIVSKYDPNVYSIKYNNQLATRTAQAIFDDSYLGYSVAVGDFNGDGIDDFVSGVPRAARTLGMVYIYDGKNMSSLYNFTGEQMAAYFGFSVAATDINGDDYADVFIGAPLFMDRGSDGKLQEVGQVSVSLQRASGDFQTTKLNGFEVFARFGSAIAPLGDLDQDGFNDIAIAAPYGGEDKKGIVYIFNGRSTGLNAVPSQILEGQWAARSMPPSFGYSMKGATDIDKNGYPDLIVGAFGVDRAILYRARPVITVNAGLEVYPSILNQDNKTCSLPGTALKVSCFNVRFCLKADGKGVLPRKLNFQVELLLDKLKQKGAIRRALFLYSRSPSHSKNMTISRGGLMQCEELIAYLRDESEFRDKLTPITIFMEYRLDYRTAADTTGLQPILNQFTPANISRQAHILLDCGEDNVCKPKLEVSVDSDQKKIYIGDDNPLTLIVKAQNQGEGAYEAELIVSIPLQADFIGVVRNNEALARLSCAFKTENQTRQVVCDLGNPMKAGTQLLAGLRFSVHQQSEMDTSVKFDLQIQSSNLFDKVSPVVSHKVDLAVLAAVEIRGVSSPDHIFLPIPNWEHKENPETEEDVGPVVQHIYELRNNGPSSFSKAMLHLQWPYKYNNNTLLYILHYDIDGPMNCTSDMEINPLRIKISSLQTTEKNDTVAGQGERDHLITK
αvβ5, sequence (P06756 891-1048 limits assumed): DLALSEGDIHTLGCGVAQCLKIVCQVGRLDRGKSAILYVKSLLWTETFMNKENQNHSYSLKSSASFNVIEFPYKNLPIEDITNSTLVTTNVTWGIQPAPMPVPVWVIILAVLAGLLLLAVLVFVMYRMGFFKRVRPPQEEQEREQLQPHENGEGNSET
αvβ5, sequence (P18084 24-799 partner): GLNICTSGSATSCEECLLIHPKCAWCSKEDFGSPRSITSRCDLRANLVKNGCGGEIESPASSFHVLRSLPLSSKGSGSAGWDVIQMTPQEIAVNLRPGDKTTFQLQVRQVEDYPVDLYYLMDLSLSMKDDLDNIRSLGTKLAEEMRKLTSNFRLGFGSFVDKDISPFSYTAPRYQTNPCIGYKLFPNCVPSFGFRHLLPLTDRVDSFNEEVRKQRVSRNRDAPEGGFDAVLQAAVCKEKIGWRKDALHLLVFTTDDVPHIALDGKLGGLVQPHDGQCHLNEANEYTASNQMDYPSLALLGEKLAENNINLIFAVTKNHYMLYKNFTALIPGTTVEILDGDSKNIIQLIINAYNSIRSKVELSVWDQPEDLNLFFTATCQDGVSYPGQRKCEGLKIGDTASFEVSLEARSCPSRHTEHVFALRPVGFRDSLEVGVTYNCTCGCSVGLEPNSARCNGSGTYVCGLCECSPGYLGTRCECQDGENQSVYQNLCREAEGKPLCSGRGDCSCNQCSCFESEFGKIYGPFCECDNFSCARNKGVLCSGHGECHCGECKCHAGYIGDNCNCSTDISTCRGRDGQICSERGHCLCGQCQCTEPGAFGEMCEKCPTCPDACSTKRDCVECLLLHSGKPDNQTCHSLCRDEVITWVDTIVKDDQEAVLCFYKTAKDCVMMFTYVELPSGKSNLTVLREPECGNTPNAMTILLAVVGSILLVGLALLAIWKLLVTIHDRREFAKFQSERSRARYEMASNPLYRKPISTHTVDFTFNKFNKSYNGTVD
Experimental: The binding affinity values for purified integrins were compared to binding to receptors expressed on various cell lines using 125-I CNTO 95. A375S2 and M21 cells express both αvβ3 and αvβ5, HT-29 cells express αvβ5. For comparison, other Mabs capable of binding integrins were used. The Kd was calculated from a saturation binding curve in each case using multiple replicates of multiple lots of antibody.

[9] = test system: HT29 human colon carcinoma cells; assay: ATPLite cytotoxicity, HT29 cells, 96 hrs; type: cell-based; conditions: HT29, 96 hrs
Experimental: (§2) Human HT29 human colon carcinoma and human non-small cell lung carcinoma cells A549 (ATCC) were cultured in αMEM supplemented with 10% FBS at 37° C. in the presence of 5% CO2. Cells were seeded into white 96-well tissue culture plates (5000 cells/well) in culture medium and incubated for 16 hrs. Serial dilutions of immunoconjugates were added to each appropraite wells (0-20 μg/ml). Tissue culture plates were incubated at 37° C. for 96 hrs. ATPLIte assay was performed acording manufacturer's instruction. Data was analyzed with GraphPad Prism software using non-liner regression (Table 8) to determine the concentration at half maximal cell number as measured by luminosity.

[10] = test system: A549 human non-small cell lung carcinoma cells; assay: ATPLite cytotoxicity, A549 cells, 96 hrs; type: cell-based; conditions: A549, 96 hrs
Experimental: as §2

[11] = test system: HT29 human colon tumor; assay: HT29 colon carcinoma xenograft in athymic rats, comparison of conjugate linkages; type: in vivo, rat
Experimental: An advanced tumor model using subcutaneously implanted HT29 human colon tumor-derived cells in immunocompromised rats was chosen to examine tolerability and potency of various linkages used to prepare immunoconjugates of CNTO 95.
CNTO 95-SPP-DM1 (CNTO 364), CNTO 95-SSNPB-DM4 (CNTO 365), CNTO 95-SSNPP-DM4 (CNTO 366), and the Mab F105 equivalents of these were prepared by ImmunoGen (Cambridge, Mass.). One hundred female athymic rats (4-6 weeks of age) were obtained from Harlan Laboratories.
Human HT29 (ATCC) were cultured in αMEM supplemented with 10% FBS at 37° C. in the presence of 5% CO2. Cells were prepared at a concentration of twenty-five million cells per ml in serum free αMEM for inoculation. Female athymic rats were inoculated with 5×10^6 HT29 cells subcutaneously (0.2 ml of 25×10^6 cells/ml) on the rear flank area (dorsal side, approximately 0.5 inches caudal to the last rib and 0.5 inches from the backbone). All rats were monitored twice per week for the appearance of tumor. The animals were stratified into 13 groups, 6 animals per group based on a mean tumor volume for each group of approximately 250 mm^3. Doses of immunoconjugates were calculated based on the contents of DM1 or DM4 in each conjugate. The L and H represent 175 and 350 μg/kg of DM1 or DM4, respectively. […] All measurements are expressed as the group mean+/−SEM (n=6).

[12] = biological target: alphaVbeta3 (Homo sapiens, UniProt P05106+P06756, V783I); assay: ELISA binding of purified hybridoma antibodies to alphaVbeta3; conditions: ELISA on alphaVbeta3
alphaVbeta3, sequence (P06756 31-889 V783I limits assumed): as the sequence (P06756 31-889 V783I limits assumed) above
alphaVbeta3, sequence (P06756 891-1048 limits assumed): as the sequence (P06756 891-1048 limits assumed) above
alphaVbeta3, sequence (P05106 27-788): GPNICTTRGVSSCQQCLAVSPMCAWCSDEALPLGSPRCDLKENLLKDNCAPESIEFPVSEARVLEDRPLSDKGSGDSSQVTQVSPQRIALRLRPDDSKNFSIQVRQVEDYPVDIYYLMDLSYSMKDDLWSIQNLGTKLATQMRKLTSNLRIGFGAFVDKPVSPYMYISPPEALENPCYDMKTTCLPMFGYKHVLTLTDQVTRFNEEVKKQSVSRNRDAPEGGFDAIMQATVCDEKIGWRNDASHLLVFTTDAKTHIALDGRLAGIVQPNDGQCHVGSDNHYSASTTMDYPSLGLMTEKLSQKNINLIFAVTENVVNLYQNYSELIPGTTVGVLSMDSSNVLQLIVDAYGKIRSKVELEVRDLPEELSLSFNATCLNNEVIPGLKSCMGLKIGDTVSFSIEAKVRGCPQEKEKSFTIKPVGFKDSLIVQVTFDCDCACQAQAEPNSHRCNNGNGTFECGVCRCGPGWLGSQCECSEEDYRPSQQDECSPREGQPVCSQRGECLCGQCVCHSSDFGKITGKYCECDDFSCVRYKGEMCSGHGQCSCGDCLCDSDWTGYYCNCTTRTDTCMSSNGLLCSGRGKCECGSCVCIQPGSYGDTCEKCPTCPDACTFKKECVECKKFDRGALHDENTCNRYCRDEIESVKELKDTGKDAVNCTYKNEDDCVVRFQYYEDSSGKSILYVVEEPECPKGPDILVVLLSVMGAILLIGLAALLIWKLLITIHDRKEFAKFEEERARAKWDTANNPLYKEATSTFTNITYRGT
Source text: Human placenta (disrupted using a meat grinder) or M21 human melanoma cells expressing the αVβ3 integrin were extracted with OTG (Octylthioglucoside Pierce) in buffered saline as described (WO0212501). These preparations were emulsified with an equal volume of complete Freund's adjuvant and used to immunize 15 to 17 week old surgically castrated male mouse (GenPharm, Foster City, Calif.) on days 0 and 14 and in incomplete Freunds on days 28, 48, and 56. Three days later splenocytes were harvested from a mouse showing a titer of 1:1280 against alphaVbeta3 using a solid phase EIA format. Fusion was carried out at a 1:1 ratio of murine myeloma cells (SP2/0) to viable spleen cells. Hybridoma supernatants were screened using the EIA microplate assay or EIA capture assay and selected antibody producing lines expanded and retested for the desired properties.
ELISA analysis confirmed that purified antibody from two hybridomas, C371A (also called Mab CNTO 95) and C372A, bind alphaVbeta3 in a concentration-dependent manner. Fifty percent binding is achieved at 0.07 and 0.7 μg/mL for C372A and CNTO 95 respectively.

“CNTO 95: fully human anti-alphaV integrin monoclonal antibody, human variable and IgG1 kappa constant regions” was tested, and the “inhibition of tumor growth compared to control-treated animals” value ([1]; day 26) was “approximately 80%”, the “tumor growth vs control” value ([1]; day 26, P=0.0005) was “significantly inhibited growth of tumors” and the “final tumor size vs isotype-matched control IgG” value [2] was “significant reduction in final tumor size”. The “effect on adhesion, migration, proliferation and invasion” value [3] was “inhibited adhesion, migration, proliferation and invasion”, the effect on angiogenesis [4] was “blocked angiogenesis” and the effect on angiogenesis [5] was “blocked angiogenesis”. For the same compound, the “effect on tumor growth / average tumor volume” value [6] was “had no effect” and the “effect on xenograft tumors (control compounds)” value [7] was “did not show any significant effects”.
“abciximab: other Mab capable of binding integrins, used for comparison” was tested, and the “binding on αvβ5 coated plates” value [8] was “no binding and no dose-response”.
For “CNTO 365: CNTO 95 conjugated to maytansinoid DM4 with SSNPB or SPDB linker; methyl groups 0:2”, the “EC50, concentration at half maximal cell number” value [9] was 0.24 µg/mL, the “EC50, concentration at half maximal cell number” value [10] was 0.3 µg/mL and the “complete regression, animals out of 6” value ([11]; high dose (350 microgm/kg of DM4), single injection) was 4. For the same compound, the “regressed preformed colon tumors, animals out of 6” value ([11]; low dose (175 microgm/kg of DM4), Day 7 and Day 21) was 2.
With c7E3 IgG: anti-alphaIIbeta3 antibody the “Fifty percent (maximal) binding concentration” value [12] was 0.07 µg/mL.
In the case of `COc1cc2cc(c1Cl)N(C)C(=O)C[C@H](OC(=O)[C@H](C)N(C)C(C)=O)[C@]1(C)O[C@H]1[C@H](C)[C@@H]1C[C@@](O)(NC(=O)O1)[C@H](OC)/C=C/C=C(\C)C2` [Maytansine, reference compound], the “effect on xenograft tumors (control compounds)” value [7] is reported as “did not show any significant effects”.

Source: US8603483B2, “Anti-integrin immunoconjugates, methods and uses” (Janssen Biotech, Inc., priority 2004, dated 2013)
